In experiment [1] the test system is Aβ1-42. Nature of the experiment: Amyloid-beta (Aβ) disaggregation test by thioflavin-T assay. In kind it is biochemical. As to conditions: 50 µM Aβ1-42 aggregated 24 hours at 37 °C, then compound 0-500 µM for 48 hours; concentration disaggregating 50 % compared to the control. The procedure:
(§1) Each compound was dissolved in DMSO to a concentration of 10 mM. Subsequently, the compound was diluted with 6 % DMSO (in DW) and used.
(§2) Specifically, amyloid-beta and tau solutions were prepared by dissolving Aβ1-42 or Tau-RD3 (Tau repeat domain 3) monomer in DMSO to a concentration of 10 mM. Thereafter, each solution was diluted with DW to a concentration of 100 µM and stored on ice. Meanwhile, thioflavin-T was dissolved in 50 mM glycine buffer (pH 8.5) to a concentration of 5 mM. Thereafter, the resulting solution was diluted with 50 mM glycine buffer (pH 8.5) to a concentration of 5 µM and stored in a dark room while light was blocked.
(§3) Each of the amyloid-beta and tau solutions prepared according to Experimental Example 1.1 was added to a 1.5 mL microcentrifuge tube to a concentration of 50 µM or 35 µM, and then a reaction was allowed to occur therebetween at 37 °C for 24 hours. Each of the 1.5 mL microcentrifuge tubes in which amyloid-beta aggregation and tau aggregation had been completed was treated with each compound at a concentrated of 500 µM to 0 µM through serial dilution, and then a further reaction was allowed to occur therebetween at 37 °C for 48 hours. 25 µL of the reaction solution in which the reaction had been completed was added to each well of a 96-well plate for fluorescence analysis, and 75µL of the previously prepared thioflavin-T solution was added to each well. After a reaction was allowed to occur at room temperature in the dark for 5 minutes, fluorescence values were measured at excitation 450 nm and emission 485 nm by using a multi-mode microplate reader.
(§4) The fluorescence value of a group (control) treated with amyloid-beta or tau alone, followed by aggregation for 72 hours was converted into a percentage value and expressed as 100, and amyloid-beta and tau aggregates, in which aggregation had been completed upon reaction for 24 hours, were treated with each compound at each concentration and a further reaction was allowed to occur therebetween for 48 hours, and then fluorescence values thereof were measured and converted into relative values. […]

Experiment [2] concerns Tau-RD3 (Tau repeat domain 3). Nature of the experiment: Tau disaggregation test by thioflavin-T assay. The format is biochemical. As to conditions: 35 µM Tau-RD3 aggregated 24 hours at 37 °C, then compound 0-500 µM for 48 hours; concentration disaggregating 50 % compared to the control. The procedure:
as §1, §2, §3, §4

We go through three substances from EP4549436A1, “NOVEL INDENONE DERIVATIVES AND USES THEREOF” (Amyloid Solution Inc., priority 2022, dated 2024).

Regarding “6-(3-phenylpropoxy)-3-(1H-pyrazol-3-yl)-2-(pyridin-3-yl)-1H-inden-1-one [Compound 7]”, the results for the EC50 in experiment [1] and in experiment [2] were 194 µM and 133 µM, respectively.
For “6-(2-(4-methoxyphenoxy)ethoxy)-3-(5-methylthiazol-4-yl)-2-(4-(trifluoromethyl)phenyl)-1H-inden-1-one [Compound 32]”, in that order: 161 µM and over 500 µM.
For “2-(4-methoxyphenyl)-3-(5-methylthiazol-4-yl)-6-(2-phenoxyethoxy)-1H-inden-1-one [Compound 21]”, in that order: 5.2 µM and 173 µM.
